Laboratory results as given in patent US9345703B2, “Kappa opioid receptor effectors and uses thereof” (University of Kansas, priority 2011, dated 2016).

Key:
Format in all cases: cell-based
MOR = MOR (Homo sapiens, UniProt P35372); experiment: High content imaging based β-arrestin translocation assay, MOR agonist (MOR HCS); settings: n = 2, read-out: Average Potency MOR HCS
Description: (§1) In this campaign, two assay platforms were employed to evaluate KOR activity and selectivity: the KOR1 DISCOVERX β-Arrestin […] assay and an imaging based β-arrestin translocation assay for confirmatory and selectivity assays. The KOR1 DISCOVERX β-Arrestin […] assay is a commercial platform for direct measurement of GPCR (G protein-coupled receptor) activation by detection of β-Arrestin binding to the KOR. […] In cells that stably express these fusion proteins, ligand stimulation results in the recruitment of β-Arrestin by the GPCR. This interaction encourages the complementation of the two β-galactosidase fragments resulting in the formation of a functional enzyme that converts substrate in the assay medium to a detectable signal. The imaging based high-content β-arrestin translocation assay is based upon the redistribution of β-Arrestin linked to green fluorescent protein (GFP) to the cell surface and detection (Barak, et al. (1997) J. Biol. Chem. 272:27497-27500).
(§2) Initially, a portion (approximately 290,000 compounds) of the MLSMR compound collection was tested in the KOR1 DISCOVERX β-arrestin primary kappa opioid (KOP) agonist and antagonist screens (PUBCHEM AID 1777 and 1778, respectively) at a single concentration point (10 μM). […] These compounds were concurrently tested in a β-galactosidase counterscreen assay (PUBCHEM AID 1966) to assess the possibility that these compounds might inhibit the reporting enzyme. […] The KOR:DOR:MOR selectivity of the compounds was determined using the analogous β-arrestin translocation assays for the DOR (PUBCHEM AID 2370 and 2357, for agonists and antagonist, respectively) and the MOR (PUBCHEM AID 2352 and 2420, for agonists and antagonists, respectively).

KOR [1] = target: T1, KOR (Homo sapiens, UniProt P41145); experiment: High content imaging based β-arrestin translocation assay, KOR agonist (KOR HCS); settings: n = 2, read-out: Average Potency KOR HCS
T1 sequence (P41145 whole entry): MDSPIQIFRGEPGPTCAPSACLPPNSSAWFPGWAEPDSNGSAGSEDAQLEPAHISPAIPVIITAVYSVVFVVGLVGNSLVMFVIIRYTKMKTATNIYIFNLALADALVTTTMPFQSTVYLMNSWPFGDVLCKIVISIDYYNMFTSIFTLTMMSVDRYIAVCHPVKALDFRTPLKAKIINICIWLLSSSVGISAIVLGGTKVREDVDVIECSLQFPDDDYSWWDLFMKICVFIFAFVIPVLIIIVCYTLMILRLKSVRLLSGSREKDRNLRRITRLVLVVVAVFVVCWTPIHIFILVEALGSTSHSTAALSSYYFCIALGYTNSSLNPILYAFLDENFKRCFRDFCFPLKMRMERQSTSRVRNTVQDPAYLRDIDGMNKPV
Description: as §1, §2

KOR [2] = target: T1, KOR; experiment: DISCOVERX β-arrestin […] assay, agonist mode (KOR DRx); settings: for EC50: agonist; for Emax (%): at highest concentration tested, compared to dynorphin A (Emax=100%)
Description: as §1, with “signal.” for “signal. The imaging based high-content β-arrestin translocation assay is based upon the redistribution of β-Arrestin linked to green fluorescent protein (GFP) to the cell surface and detection (Barak, et al. (1997) J. Biol. Chem. 272:27497-27500).”

[3] = n = 3, read-out: Average Potency KOR DRx
[4] = n = 4, Table 11, read-out: Potency, EC50 (DRx)

Chain of MOR (P35372 whole entry, the tested form may be a part): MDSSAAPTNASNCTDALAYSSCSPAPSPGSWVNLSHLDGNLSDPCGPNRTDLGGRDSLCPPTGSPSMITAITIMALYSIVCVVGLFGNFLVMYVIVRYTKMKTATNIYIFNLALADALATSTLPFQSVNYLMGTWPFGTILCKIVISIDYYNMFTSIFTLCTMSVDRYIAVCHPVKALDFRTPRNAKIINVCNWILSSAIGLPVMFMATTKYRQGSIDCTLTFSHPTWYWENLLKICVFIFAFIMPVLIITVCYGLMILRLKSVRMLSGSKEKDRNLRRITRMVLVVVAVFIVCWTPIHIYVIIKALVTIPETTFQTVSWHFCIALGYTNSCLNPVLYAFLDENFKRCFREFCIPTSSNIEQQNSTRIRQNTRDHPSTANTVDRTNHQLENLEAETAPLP

| Structure (SMILES) | EC50 (MOR) [µM] | EC50 (KOR [1]) [µM] | EC50 (KOR [2]; [3]) [µM] | Emax (%) (KOR [2]) | EC50 (KOR [2]; [4]) [µM] | Emax (KOR [2]) [%] |
| --- | --- | --- | --- | --- | --- | --- |
| Fc1cc(F)cc(CSc2nnc(-c3ccccn3)n2Cc2ccco2)c1 [Compound 2{16}] | > 32 | 21 | 7.89 | ~104 |  |  |
| FC(F)(F)c1cc(CSc2nnc(-c3ccccn3)n2Cc2ccccc2Cl)ccc1Cl [Entry 16] |  |  |  |  | 4.3 |  |
| Brc1ccc(CSc2nnc(-c3ccccn3)n2Cc2ccco2)cc1 [Compound 2{3}] | > 32 | 1.36 | 1.92 ± 0.05 | ~100 |  |  |
| Fc1ccc(CSc2nnc(-c3ccccn3)n2Cc2cccs2)c(F)c1 [Compound 2{24}] | > 32 | 5.68 | 6.74 ± 0.97 | ~155 |  |  |
| Clc1ccc(CSc2nnc(-c3ccccn3)n2Cc2cccs2)c(Cl)c1 [Compound 2{2}] | > 32 | 8.11 | 2.27 ± 0.46 | ~120 |  |  |
| Fc1ccc(CSc2nnc(-c3ccccn3)n2Cc2cccs2)c(F)c1F [Compound 2{44}] | > 32 | 1.7 | 3.04 | ~115 |  |  |
| Fc1ccc(CSc2nnc(-c3ccccn3)n2Cc2ccco2)c(F)c1F [Compound 2{43}] | > 32 | 5.3 | 7 | ~140 |  |  |
| Cc1cc(C)c(CSc2nnc(-c3ccccn3)n2Cc2cccs2)c(C)c1 [Compound 2{19}] | > 32 | 9.5 | > 20 |  |  |  |
| Fc1ccc(CSc2nnc(-c3ccccn3)n2Cc2cccs2)c(C(F)(F)F)c1 [Compound 2{46}] | > 32 | 2.25 | 4.46 | ~109 |  |  |
| Clc1ccc(CSc2nnc(-c3ccc(Br)cc3)n2Cc2ccco2)cc1Cl [Entry 23] |  |  |  |  | 11 |  |
| Fc1ccc(CSc2nnc(-c3ccccn3)n2Cc2ccco2)c(C(F)(F)F)c1 [Compound 2{45}] | > 32 | 5.4 | 8.27 | ~138 |  |  |
| Brc1ccc(-c2nnc(SCc3ccccc3)n2Cc2ccco2)cc1 [Entry 21] |  |  |  |  | > 20 |  |
| COc1ccc(Cn2c(SCc3ccc(Cl)c(C(F)(F)F)c3)nnc2-c2ccccn2)cc1 [Entry 4] |  |  |  |  | > 19.7 |  |
| Clc1ccccc1CSc1nnc(-c2ccccn2)n1Cc1cccs1 [Compound 2{48}] | > 32 | 4.1 | 10.2 | ~100 |  |  |
| COC(=O)c1ccc(CSc2nnc(-c3ccccn3)n2Cc2ccco2)cc1 [Compound 2{29}] | > 32 | 18.5 | 6.62 | ~125 |  |  |
| CC(C)c1ccc(CSc2nnc(-c3ccccn3)n2Cc2ccco2)cc1 [Compound 2{33}] | > 32 | 2.8 | 5.97 | 165 |  |  |
| Brc1ccc(CSc2nnc(-c3ccccn3)n2Cc2cccs2)cc1 [Compound 2{4}] | > 32 | 1.1 | 1.85 ± 0.11 | ~185 |  |  |
| COC(=O)c1ccc(CSc2nnc(-c3ccccn3)n2Cc2cccs2)cc1 [Compound 2{30}] | > 32 | 6 | 6.14 | ~154 |  |  |
| Cc1cc(C)c(CSc2nnc(-c3ccccn3)n2Cc2ccco2)c(C)c1 [Compound 2{18}] | > 32 |  |  | ~100 |  |  |
| FC(F)(F)c1cc(CSc2nnc(-c3ccc(Br)cc3)n2Cc2ccco2)ccc1Cl [Entry 24] |  |  |  |  | 13.3 |  |
| Clc1ccc(CSc2nnc(-c3ccccn3)n2Cc2ccccc2)cc1Cl [Entry 7] |  |  |  |  | 1.24 |  |
| Cc1c(CSc2nnc(-c3ccccn3)n2Cc2cccs2)cccc1[N+](=O)[O-] [Compound 2{40}] | > 32 | 4.2 | 5.81 | ~105 |  |  |
| FC(F)(F)c1cc(CSc2nnc(-c3ccccn3)n2Cc2ccccc2)ccc1Cl [Entry 8] |  |  |  |  | 2.22 |  |
| Clc1ccc(CSc2nnc(-c3ccccn3)n2Cc2cccs2)cc1Cl [2{9}, 2-(5-((3,4-Dichlorobenzyl)thio)-4-(thiophen-2-ylmethyl)-4H-1,2,4-triazol-3-yl)pyridine] | > 32 | 0.43 | 0.73 ± 0.11 |  |  | ~135 |
| c1ccc(CSc2nnc(-c3ccccn3)n2Cc2cccnc2)cc1 [Entry 9] |  |  |  |  | > 20 |  |
| Cc1c(CSc2nnc(-c3ccccn3)n2Cc2ccco2)cccc1[N+](=O)[O-] [Compound 2{39}] | > 32 | 12 | 8.21 | ~128 |  |  |

| Structure (SMILES) | EC50 (MOR) [µM] | EC50 (KOR [1]) [µM] | EC50 (KOR [2]; [3]) [µM] | Emax (%) (KOR [2]) | EC50 (KOR [2]; [4]) [µM] | Emax (KOR [2]) [%] |
| --- | --- | --- | --- | --- | --- | --- |
| N#Cc1ccc(CSc2nnc(-c3ccccn3)n2Cc2ccco2)cc1 [Compound 2{27}] | > 32 | 19 | 6.79 | ~105 |  |  |
| Brc1ccc(CSc2nnc(-c3ccccn3)n2Cc2cccnc2)cc1 [Entry 10] |  |  |  |  | 8.51 |  |
| COc1ccc(Cn2c(SCc3ccc(Cl)c(Cl)c3)nnc2-c2ccccn2)cc1 [Entry 3] |  |  |  |  | 11.8 |  |
| CC(=O)Oc1ccc(CSc2nnc(-c3ccccn3)n2Cc2cccs2)cc1 [Compound 2{32}] | > 32 | > 32 | > 20 |  |  |  |
| FC(F)(F)c1cc(CSc2nnc(-c3ccncc3)n2Cc2ccco2)ccc1Cl [Entry 20] |  |  |  |  | > 20 |  |
| Cc1ccc(CSc2nnc(-c3ccccn3)n2Cc2cccs2)cc1 [Compound 2{13}] | > 32 | 2.38 | 3.59 ± 0.3 | ~170 |  |  |
| FC(F)(F)c1ccc(CSc2nnc(-c3ccccn3)n2Cc2ccco2)cc1 [Compound 2{14}] | > 32 | 1.25 | 2.77 | ~166 |  |  |
| O=[N+]([O-])c1ccc(CSc2nnc(-c3ccccn3)n2Cc2cccs2)cc1 [Compound 2{26}] | > 32 | 0.96 | 1.24 | ~128 |  |  |
| COc1ccc(Cn2c(SCc3ccccc3)nnc2-c2ccccn2)cc1 [Entry 1] |  |  |  |  | > 20 |  |
| Brc1ccc(CSc2nnc(-c3ccc(Br)cc3)n2Cc2ccco2)cc1 [Entry 22] |  |  |  |  | 13.5 |  |
| Clc1ccccc1Cn1c(SCc2ccccc2)nnc1-c1ccccn1 [Entry 13] |  |  |  |  | > 20 |  |
| Clc1ccc(CSc2nnc(-c3ccccn3)n2Cc2cccnc2)cc1Cl [Entry 11] |  |  |  |  | 0.76 |  |
| COc1cccc(CSc2nnc(-c3ccccn3)n2Cc2cccs2)c1 [Compound 2{38}] | > 32 | 12.2 | 8.72 | ~100 |  |  |
| COc1ccc(Cn2c(SCc3ccc(Br)cc3)nnc2-c2ccccn2)cc1 [Entry 2] |  |  |  |  | > 20 |  |
| N#Cc1ccc(CSc2nnc(-c3ccccn3)n2Cc2cccs2)cc1 [Compound 2{28}] | > 32 | 3.5 | 4.64 | ~142 |  |  |
| c1ccc(CSc2nnc(-c3ccncc3)n2Cc2ccco2)cc1 [Entry 17] |  |  |  |  | > 20 |  |
| O=[N+]([O-])c1ccc(CSc2nnc(-c3ccccn3)n2Cc2ccco2)cc1 [Compound 2{25}] | > 32 | 2.35 | 2.48 | ~120 |  |  |
| CC(C)(C)c1ccc(CSc2nnc(-c3ccccn3)n2Cc2ccco2)cc1 [2{6}] | > 32 | 0.6 | 2.01 ± 0.07 |  |  | ~100 |
| c1ccc(CSc2nnc(-c3ccccn3)n2Cc2ccccc2)cc1 [Entry 5] |  |  |  |  | > 20 |  |
| Clc1cccc(CSc2nnc(-c3ccccn3)n2Cc2ccco2)c1 [Compound 2{7}] | > 32 | 3.63 | 6.76 ± 0.01 |  |  | ~100 |
| Brc1ccc(CSc2nnc(-c3ccccn3)n2Cc2ccccc2)cc1 [Entry 6] |  |  |  |  | 4.06 |  |
| CC(=O)Oc1ccc(CSc2nnc(-c3ccccn3)n2Cc2ccco2)cc1 [Compound 2{31}] | > 32 | > 32 | > 20 |  |  |  |
| FC(F)(F)c1ccc(CSc2nnc(-c3ccccn3)n2Cc2cccs2)cc1 [Compound 2{15}] | > 32 | 0.6 | 1.23 | ~149 |  |  |
| FC(F)(F)c1cc(CSc2nnc(-c3ccccn3)n2Cc2ccco2)ccc1Cl [Compound 2{10}] | > 32 | 0.46 | 0.5 | ~122 |  |  |
| Clc1ccc(CSc2nnc(-c3ccccn3)n2Cc2ccco2)c(Cl)c1 [Compound 2{1}] | > 32 | 0.93 | 1.86 ± 0.07 | ~100 |  |  |
